EP3114111B1, “BICYCLIC PYRROLE DERIVATIVES USEFUL AS AGONISTS OF GPR120” (Janssen Pharmaceutica NV, priority 2014, dated 2015)

Assays:
C57bl6 Mouse = assay: GPR120 C57bl6 Mouse IPGTT; type: in vivo, C57bl/6J Mice
Protocol: Male, C57bl/6J Mice were ordered in at 8 weeks of age from Jackson Labs. Individual mice weighed anywhere in the range of 25-30 grams on study day. The mice were fasted, with removal of food occurring at 7am on the morning of the study. Animals were moved into the room at 10:00am, to give them time to acclimate. Glucose (insulin syringes) was drawn up either the night before or the morning of the study. Glucose was dosed (IP) at 1.5g/kg at 7.5ml/kg (20% glucose straight TEKNOVA, 250ml sterile bottle w/ catalogue number G0525). Test compounds were kept spinning and were only drawn into the syringes prior to study commencement. Animals were bled via tail snip to determine basal glucose levels prior to dosing of treatments. An Ascensia BREEZE Blood Glucose Monitoring System by Bayer (using unique 10-test disks) was used for determining glucose levels. The bleeds started at approximately 12:45pm and dosing started, at 1-minute intervals, immediately after. All groups were dosed 30 minutes prior to glucose administration at a dose volume of 10ml/kg (the dose volume was calculated separately for each individual animal). Thirty minutes after the first dose animals were bled again for a second baseline, or T=0, and immediately dosed with glucose via an i.p. injection. The exact dose volume for glucose was also calculated separately for each individual animal. Glucose measurements were taken at -30min prior to compound dose, at t=0 (immediately prior to glucose dose), and at 15, 30, 45, 60, 90min post glucose dose.
Glucose values were entered into an Excel sheet and graphed in GraphPad Prism. The following were calculated from Prism: Change from -30 to 0 BSLN Glucose, Raw Glucose AUC -30 to 90min, Delta Glucose AUC -30 to 90min, Raw Glucose AUC 0 to 90min, Delta Glucose AUC 0 to 90min.

DIO Mice = assay: GPR120 DIO Mice OGTT Screening; type: in vivo, C57BI6 mice; conditions: for DIO Lowering Glucose AUC: DIO mice OGTT; for Lowering Glucose AUC: DIO Dose Response
Protocol: 18-22 week old, C57BI6 mice on a high fat diet (60% HFD) for 12-16 weeks (ave. body weight ∼ 37-41g) were fasted for 6hr, with removal of food occurring at 7 am on the morning of the study. The animals were sorted into treatment groups the day before the study by body weight. Animals outside the bounds of ∼30-50g were left out of the study. The animals had been handled and shammed a total of 5-8 days (1-3 days immediately prior to the study). Glucose (in 1ml syringes) was drawn up the morning of the study. Test compounds were kept spinning and were only drawn into 1ml syringes prior to study commencement. Animals were bled via tail snip to determine basal glucose levels prior to dosing of treatments. An Ascensia BREEZE Blood Glucose Monitoring System by Bayer was used for determining glucose levels.
Animals were moved into the testing room at ∼9-11am, to yield them time to acclimate. The bleeds and dosing started at approximately 1pm in 30-second intervals per animal. All groups were dosed 30 minutes prior to glucose administration at a dose volume of 10ml/kg (the dose volume was calculated separately for each individual animal). Test compounds were administered at two or more of the following dosages: 0.1 mg/kg, 0.3 mg/kg, 1 mg/kg, 3 mg/kg, 10 mg/kg and 30 mg/kg.
Thirty minutes after the first dose (with test compound) animals were bled again for a second baseline, or T=0, and immediately dosed with glucose (20% solution; TEKNOVA, 250ml sterile bottle w/ catalogue number G0525) via a PO injection. The exact dose volume for glucose was also calculated separately for each individual animal.
Blood glucose was measured at 15, 30, 45, 60, and 90 minutes post-glucose administration via the snipped tail. If an animal reached a value of "HI", the upper limit of the glucometer (600mg/dl) was substituted as the blood glucose value and the study was analyzed as normal with no exclusions. If 50% or more of any treatment group reaches a "HI" value at least once, the study was considered invalid and repeated. Glucose values were typed into an EXCEL spreadsheet where they were used to calculate glucose AUC and delta AUC post-compound and post-glucose. The glucose excursion curves and the different versions of the AUC's were graphed in GraphPad Prism 5.
Note: All statistics completed in this study were completed using the statistical software package GraphPad Prism 5. Standard procedures for analyzing data sets from screening GPR120 compounds in DIO mouse OGTT's were as listed here below. In addition to the statistics that were run using GraphPad Prism 5, Microsoft Excel was used to calculate the percent changes in AUC from vehicle groups as detailed below.
Change from -30 to 0 BSLN Glucose, Raw Glucose AUC -30 to 90min, Delta Glucose AUC -30 to 90min, Raw Glucose AUC 0 to 90min, Delta Glucose AUC 0 to 90min were analyzed using Column Statistics Analysis, with mean values used to calculate % change from the vehicle mean group, as well as mean, SEM and / or % change from vehicle, where appropriate; and using One-Way ANOVA w/ a Tukey Post-Test (Comparing All Pairs of Columns) with each treatment group examined to see if it was statistically significant compared to vehicle (*= P<0.05, **= P<0.01, ***= P<0.001).

| Structure (SMILES) | GPR120 C57bl6 Mouse IPGTT Results (C57bl6 Mouse; 10.0 mg/kg) | DIO Lowering Glucose AUC (DIO Mice; 3 mg/kg) | DIO Lowering Glucose AUC (DIO Mice; 10 mg/kg) | further results |
| --- | --- | --- | --- | --- |
| Cc1ccc(-n2ccc(C(F)(F)F)c2COc2c(F)cc(CCCO)cc2F)cc1 [Compound 37, 3-(3,5-Difluoro-4-{[1-(4-methylphenyl)-3-(trifluoromethyl)-1H-pyrrol-2-yl]methoxy}phenyl)propan-1-ol] | -30 |  |  |  |
| O=C(O)CCc1cc(F)c(OCc2c(C(F)(F)F)ccn2-c2ccc(Cl)cc2)c(F)c1 [Compound 70, 3-(4-{[1-(4-Chlorophenyl)-3-(trifluoromethyl)-1H-pyrrol-2-yl]methoxy}-3,5-difluorophenyl)propanoic acid] |  | -79% | -82% | Lowering Glucose AUC (DIO Mice; 0.1 mg/kg): 9%; Lowering Glucose AUC (DIO Mice; 0.3 mg/kg): -8%; Lowering Glucose AUC (DIO Mice; 1.0 mg/kg): -54%; Lowering Glucose AUC (DIO Mice; 3.0 mg/kg): -73% |
| Cc1c(CCC(=O)O)ccc(OCc2cccn2-c2ccc(Cl)cc2)c1C [Compound 1, 3-(4-{[1-(4-Chlorophenyl)-1H-pyrrol-2-yl]methoxy}-2,3-dimethylphenyl)propanoic acid] |  |  |  | GPR120 C57bl6 Mouse IPGTT Results (C57bl6 Mouse; 30.0 mg/kg): not different from vehicle |
| Cc1ccc(-n2ccc(C(F)(F)F)c2COc2c(F)cc(CCC(=O)O)cc2F)cc1 [Compound 39, 3-(3,5-Difluoro-4-{[1-(4-methylphenyl)-3-(trifluoromethyl)-1H-pyrrol-2-yl]methoxy}phenyl)propanoic acid] |  | -59% | -68% |  |
| CCc1ccc(-n2ccc(C(F)(F)F)c2COc2ccc(CCC(=O)O)c(F)c2F)cc1 [Compound 34, 3-(4-{[1-(4-Ethylphenyl)-3-(trifluoromethyl)-1H-pyrrol-2-yl]methoxy}-2,3-difluorophenyl)propanoic acid] |  | -27% | -50% |  |
| COc1ccc(-n2ccc(C(F)(F)F)c2COc2c(F)cc(CCCO)cc2F)cc1 [Compound 31, 3-(3,5-Difluoro-4-{[1-(4-methoxyphenyl)-3-(trifluoromethyl)-1H-pyrrol-2-yl]methoxy}phenyl)propan-1-ol] | -43 |  |  | C57bl6 Mouse IPGTT dose response (C57bl6 Mouse; 1 mg/kg): 2%; C57bl6 Mouse IPGTT dose response (C57bl6 Mouse; 3 mg/kg): -39%; C57bl6 Mouse IPGTT dose response (C57bl6 Mouse; 10 mg/kg): -44% |
| CCc1ccc(-n2ccc(C(F)(F)F)c2COc2c(F)cc(CCCO)cc2F)cc1 [Compound 33, 3-(4-{[1-(4-Ethylphenyl)-3-(trifluoromethyl)-1H-pyrrol-2-yl]methoxy}-3,5-difluorophenyl)propan-1-ol] | -26 |  |  |  |
| COc1ccc(-n2ccc(C(F)(F)F)c2COc2ccc(CCCO)c(F)c2F)cc1 [Compound 27, 3-(2,3-Difluoro-4-{[1-(4-methoxyphenyl)-3-(trifluoromethyl)-1H-pyrrol-2-yl]methoxy}phenyl)propan-1-ol] | -16 |  |  |  |
| OCCCc1cc(F)c(OCc2c(C(F)(F)F)ccn2-c2ccc(Br)cc2)c(F)c1 [Compound 30, 3-(4-{[1-(4-Bromophenyl)-3-(trifluoromethyl)-1H-pyrrol-2-yl]methoxy}-3,5-difluorophenyl)propan-1-ol] | -53 |  |  | C57bl6 Mouse IPGTT dose response (C57bl6 Mouse; 1 mg/kg): 1%; C57bl6 Mouse IPGTT dose response (C57bl6 Mouse; 3 mg/kg): -14%; C57bl6 Mouse IPGTT dose response (C57bl6 Mouse; 10 mg/kg): -48% |
